According to ChEMBL document CHEMBL1201862, “PubChem BioAssay data set” (2004):
One block for each compound: values may come before it. Active and inactive are the calls of the source.

Tests used:
Caspase-3 = molecular target: T1, Caspase-3 (Homo sapiens, UniProt P42574); assay: SAR Analysis of small molecule inhibitors of Sentrin-specific proteases (SENPs) using a Caspase-3 Selectivity assay. [Related pubchem assays (depositor defined):AID2540, AID2599, AID434973, AID489001]; format: functional
T1 sequence (P42574 whole entry): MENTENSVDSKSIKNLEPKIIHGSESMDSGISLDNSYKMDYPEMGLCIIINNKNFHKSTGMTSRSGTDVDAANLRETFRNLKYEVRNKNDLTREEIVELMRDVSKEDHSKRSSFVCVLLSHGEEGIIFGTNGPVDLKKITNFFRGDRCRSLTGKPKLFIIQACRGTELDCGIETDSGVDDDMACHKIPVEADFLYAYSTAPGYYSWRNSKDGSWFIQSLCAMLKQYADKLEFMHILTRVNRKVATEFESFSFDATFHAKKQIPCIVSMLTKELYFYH

[1] = molecular target: T2, Sentrin-specific protease 6 (Homo sapiens, UniProt Q9GZR1); assay: SAR Analysis of small molecule inhibitors of Sentrin-specific protease 6 (SENP6) using a Luminescent assay. [Related pubchem assays (depositor defined):AID2582, AID2599]; format: functional
T2 sequence (Q9GZR1 whole entry): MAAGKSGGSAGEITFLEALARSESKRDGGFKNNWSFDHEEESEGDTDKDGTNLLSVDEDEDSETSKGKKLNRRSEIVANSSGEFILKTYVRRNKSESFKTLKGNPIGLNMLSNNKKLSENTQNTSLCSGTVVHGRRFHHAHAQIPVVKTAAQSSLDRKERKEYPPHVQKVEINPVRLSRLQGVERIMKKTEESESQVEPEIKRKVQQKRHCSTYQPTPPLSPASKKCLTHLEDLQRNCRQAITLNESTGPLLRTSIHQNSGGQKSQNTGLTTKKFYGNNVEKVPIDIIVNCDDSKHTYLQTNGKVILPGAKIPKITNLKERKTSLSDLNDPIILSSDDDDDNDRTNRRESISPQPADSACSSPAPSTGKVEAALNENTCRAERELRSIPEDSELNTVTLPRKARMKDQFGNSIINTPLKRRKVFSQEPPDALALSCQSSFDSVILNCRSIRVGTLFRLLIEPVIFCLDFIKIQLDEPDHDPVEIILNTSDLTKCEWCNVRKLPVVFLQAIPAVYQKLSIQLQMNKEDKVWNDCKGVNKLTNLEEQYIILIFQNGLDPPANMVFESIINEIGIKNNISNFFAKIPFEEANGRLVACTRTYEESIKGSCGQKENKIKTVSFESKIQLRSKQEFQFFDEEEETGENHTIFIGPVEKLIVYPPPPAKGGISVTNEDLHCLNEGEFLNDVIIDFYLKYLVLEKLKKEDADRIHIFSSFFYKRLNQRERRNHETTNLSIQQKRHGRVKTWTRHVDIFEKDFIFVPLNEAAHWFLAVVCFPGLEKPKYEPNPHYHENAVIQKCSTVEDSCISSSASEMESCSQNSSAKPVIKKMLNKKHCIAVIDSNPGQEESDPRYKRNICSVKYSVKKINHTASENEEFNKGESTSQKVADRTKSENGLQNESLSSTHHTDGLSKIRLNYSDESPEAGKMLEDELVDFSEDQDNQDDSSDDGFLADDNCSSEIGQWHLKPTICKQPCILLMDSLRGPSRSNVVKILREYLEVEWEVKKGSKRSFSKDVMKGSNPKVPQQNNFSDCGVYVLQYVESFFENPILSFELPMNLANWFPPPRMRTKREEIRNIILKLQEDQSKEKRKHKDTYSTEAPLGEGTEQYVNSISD

[2] = molecular target: T3, Sentrin-specific protease 8 (Homo sapiens, UniProt Q96LD8); assay: SENP8 protease inhibitors, SAR follow-up, biochemical, luminescence (AID 504501); format: functional
T3 sequence (Q96LD8 whole entry): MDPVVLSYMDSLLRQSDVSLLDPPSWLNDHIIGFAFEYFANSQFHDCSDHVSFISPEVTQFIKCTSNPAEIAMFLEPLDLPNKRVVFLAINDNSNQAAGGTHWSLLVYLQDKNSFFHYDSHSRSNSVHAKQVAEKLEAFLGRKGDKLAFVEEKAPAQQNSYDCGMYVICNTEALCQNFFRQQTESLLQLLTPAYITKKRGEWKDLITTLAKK

[3] = molecular target: T4, Sentrin-specific protease 7 (Homo sapiens, UniProt Q9BQF6); assay: SENP7 protease inhibitors, SAR follow-up, biochemical, luminescence (AID 504497); format: functional
T4 sequence (Q9BQF6 whole entry): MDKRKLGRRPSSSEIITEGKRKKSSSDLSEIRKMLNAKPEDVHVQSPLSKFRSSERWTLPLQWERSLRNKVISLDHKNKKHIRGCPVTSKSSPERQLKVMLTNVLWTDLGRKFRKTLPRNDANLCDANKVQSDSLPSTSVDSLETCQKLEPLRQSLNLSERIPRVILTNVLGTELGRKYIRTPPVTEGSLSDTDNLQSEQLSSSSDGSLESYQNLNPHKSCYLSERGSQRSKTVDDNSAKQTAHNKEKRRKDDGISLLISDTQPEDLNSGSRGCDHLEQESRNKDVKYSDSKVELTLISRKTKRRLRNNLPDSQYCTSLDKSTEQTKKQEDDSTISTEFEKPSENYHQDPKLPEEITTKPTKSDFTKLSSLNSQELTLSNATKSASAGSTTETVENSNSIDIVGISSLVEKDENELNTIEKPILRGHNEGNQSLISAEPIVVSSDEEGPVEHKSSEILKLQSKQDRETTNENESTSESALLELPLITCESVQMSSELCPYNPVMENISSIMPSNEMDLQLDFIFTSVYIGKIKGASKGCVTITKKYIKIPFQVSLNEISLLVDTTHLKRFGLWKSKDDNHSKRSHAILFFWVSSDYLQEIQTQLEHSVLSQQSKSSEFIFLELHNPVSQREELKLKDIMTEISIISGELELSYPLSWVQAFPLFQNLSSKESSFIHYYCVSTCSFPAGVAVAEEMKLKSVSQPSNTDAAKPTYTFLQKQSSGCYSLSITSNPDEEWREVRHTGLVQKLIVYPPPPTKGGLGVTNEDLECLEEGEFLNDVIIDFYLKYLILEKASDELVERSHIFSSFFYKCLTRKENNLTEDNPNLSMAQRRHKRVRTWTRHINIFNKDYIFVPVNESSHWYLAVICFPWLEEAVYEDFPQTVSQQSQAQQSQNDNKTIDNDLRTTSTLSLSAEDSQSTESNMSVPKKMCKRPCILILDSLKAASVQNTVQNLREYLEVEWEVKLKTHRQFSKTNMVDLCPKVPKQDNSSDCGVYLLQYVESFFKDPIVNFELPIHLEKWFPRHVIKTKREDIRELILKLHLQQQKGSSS

SN12K1 = assay: cells; format: functional; settings: Homo sapiens
P388 = assay: cells; format: functional; settings: Mus musculus
P388/ADR = assay: cells; format: functional; settings: Mus musculus
[4] = Counterscreen for activators of the function of SWI/SNF related, matrix associated, actin dependent regulator of chromatin, subfamily a, member 2 (SMARCA2, BRM): Luminescence-based cell-based high throughput dose response assay to identify non-selective compounds using the VP16 reporter assay.; format: functional
[5] = molecular target: SWI/SNF-related matrix-associated actin-dependent regulator of chromatin subfamily A member 2 (Homo sapiens, UniProt P51531); assay: Luminescence-based cell-based high throughput dose response assay to identify activators of the function of SWI/SNF related, matrix associated, actin dependent regulator of chromatin, subfamily a, member 2 (SMARCA2, BRM).; format: functional
SWI/SNF-related matrix-associated actin-dependent regulator of chromatin subfamily A member 2, sequence (P51531 whole entry, the tested form may be a part): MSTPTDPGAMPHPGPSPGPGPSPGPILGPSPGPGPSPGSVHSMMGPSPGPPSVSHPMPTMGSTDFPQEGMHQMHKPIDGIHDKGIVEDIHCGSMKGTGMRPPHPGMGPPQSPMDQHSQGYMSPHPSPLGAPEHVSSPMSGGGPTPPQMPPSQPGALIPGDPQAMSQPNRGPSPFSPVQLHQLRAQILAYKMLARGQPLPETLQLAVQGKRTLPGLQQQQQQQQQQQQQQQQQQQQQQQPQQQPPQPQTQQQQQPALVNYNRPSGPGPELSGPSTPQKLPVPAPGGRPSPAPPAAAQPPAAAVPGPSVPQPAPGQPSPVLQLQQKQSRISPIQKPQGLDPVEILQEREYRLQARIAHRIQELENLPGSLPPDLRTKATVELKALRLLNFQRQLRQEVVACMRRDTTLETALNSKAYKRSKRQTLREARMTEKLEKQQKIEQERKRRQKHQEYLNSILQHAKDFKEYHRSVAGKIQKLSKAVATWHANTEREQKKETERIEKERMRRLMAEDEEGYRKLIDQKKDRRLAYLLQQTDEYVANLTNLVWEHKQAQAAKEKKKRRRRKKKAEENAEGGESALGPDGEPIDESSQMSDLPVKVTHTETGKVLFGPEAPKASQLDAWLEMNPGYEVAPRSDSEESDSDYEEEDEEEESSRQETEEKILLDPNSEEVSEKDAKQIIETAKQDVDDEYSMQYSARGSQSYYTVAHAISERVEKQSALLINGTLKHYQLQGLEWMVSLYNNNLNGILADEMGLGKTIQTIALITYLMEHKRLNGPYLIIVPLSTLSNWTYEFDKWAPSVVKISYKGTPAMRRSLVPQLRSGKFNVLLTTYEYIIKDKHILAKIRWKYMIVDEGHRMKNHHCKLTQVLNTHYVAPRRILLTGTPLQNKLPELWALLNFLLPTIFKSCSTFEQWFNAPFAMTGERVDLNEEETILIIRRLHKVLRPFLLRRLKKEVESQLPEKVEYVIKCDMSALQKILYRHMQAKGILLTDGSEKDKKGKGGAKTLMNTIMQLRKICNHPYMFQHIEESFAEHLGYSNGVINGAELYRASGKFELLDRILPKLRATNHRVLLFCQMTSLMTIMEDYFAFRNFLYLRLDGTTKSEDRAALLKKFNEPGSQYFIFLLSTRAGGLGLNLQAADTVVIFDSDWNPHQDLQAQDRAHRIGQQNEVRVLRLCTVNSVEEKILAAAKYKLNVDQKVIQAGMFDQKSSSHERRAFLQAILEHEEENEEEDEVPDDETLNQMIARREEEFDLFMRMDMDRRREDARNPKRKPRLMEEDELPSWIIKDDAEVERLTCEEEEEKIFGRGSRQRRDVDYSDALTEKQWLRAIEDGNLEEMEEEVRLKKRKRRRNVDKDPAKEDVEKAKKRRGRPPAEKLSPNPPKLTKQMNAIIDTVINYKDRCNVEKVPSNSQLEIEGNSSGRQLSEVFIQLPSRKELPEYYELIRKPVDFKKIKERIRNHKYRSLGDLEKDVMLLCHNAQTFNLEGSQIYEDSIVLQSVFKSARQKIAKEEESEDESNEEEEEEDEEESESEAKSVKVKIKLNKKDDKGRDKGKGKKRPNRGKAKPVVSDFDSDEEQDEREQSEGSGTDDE

[6] = ARNT/TACC3 interaction disruptors, potency, confirmation, biochemical, AlphaScreen, cherry-picked samples (AID 651703); format: functional, Homo sapiens;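 further: His-tagged ARNT PAS-B domain paired with GST-TACC3 E629A dimer coactivator fragment; potency of inhibitors that break up the complex and lower AlphaScreen signal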
[7] = ZM109 Env clade C HIV-1 fusion inhibitors, dose response, HeLa effector, CEM target cells, luciferase, cherry-pick (AID 652058); format: functional, cell-based
[8] = CEM21 lymphoblast cell cytotoxicity, dose response, cytotoxicity control for viral fusion inhibitor project, CellTiter-Glo luminescence, cherry-picked (AID 652042); format: functional, cell-based;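 further: potency for signal decrease meaning cytotoxicity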
[9] = C. albicans growth with fluconazole, confirmation, fluorescence, retest (AID 2467); format: functional, cell-based
[10] = growth suppression of PTEN-null colon cells, dose response, cell-based, HCT116 PTEN knockout (AID 1047); format: functional;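 further: HCT116 colon tumor cells with PTEN knocked out; cells exposed to compound for 60 hours before readout; potency for loss of cell viability measured by luminescence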
[11] = growth suppression of beta-catenin-knockout colon cells, dose response, cell-based, HCT116, human colon tumor (AID 1045); format: functional;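 further: HCT116 colon tumor cells with beta catenin knocked out; cells exposed to compound for 60 hours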
INS1 = assay: beta cell apoptosis inhibitors, cytokine rescue, dose response, luminescence, retest (AID 449756); format: functional, cell-based; settings: Rattus norvegicus;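 further: cell death triggered by IL-1 beta plus TNF-alpha plus IFN-gamma mixture; protective hits raise ATP signal compared with cytokine alone wells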
[12] = off-target signal loss in HeLa-CEM21 co-culture – HeLa F-luc CTL cells, cherry-picked, counter-screen for HIV-1 Env fusion inhibitor project, dose response (AID 652040); format: functional, cell-based;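 further: potency for signal decrease marking cytotoxic or nonspecific inhibition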
[13] = inhibitors of HIV Env-driven cell fusion, dose response, cherry-pick (AID 652057); format: functional, cell-based
[14] = inhibitors of clade B AD8 Env fusion, dose response, cell-based, cherry-pick (AID 652062); format: functional;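 further: luciferase signal from cell-cell fusion driven by HIV-1 clade B AD8 Env; potency is for inhibitors of fusion seen as a drop in luminescence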
[15] = NIH-3T3 fibroblast cytotoxicity, dose response, cytotoxicity control, cell-based, fluorescence, Alamar Blue, secondary assay (AID 2327); format: functional;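 further: NIH-3T3 mouse fibroblasts cultured with fluconazole at 8 µg/mL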
Galanin receptor type 3 = molecular target: T5, Galanin receptor type 3 (Homo sapiens, UniProt O60755); assay: Fluorescence-based cell-based primary high throughput dose response assay to identify antagonists of the Galanin Receptor 3 (GalR3).; format: functional
T5 sequence (O60755 whole entry): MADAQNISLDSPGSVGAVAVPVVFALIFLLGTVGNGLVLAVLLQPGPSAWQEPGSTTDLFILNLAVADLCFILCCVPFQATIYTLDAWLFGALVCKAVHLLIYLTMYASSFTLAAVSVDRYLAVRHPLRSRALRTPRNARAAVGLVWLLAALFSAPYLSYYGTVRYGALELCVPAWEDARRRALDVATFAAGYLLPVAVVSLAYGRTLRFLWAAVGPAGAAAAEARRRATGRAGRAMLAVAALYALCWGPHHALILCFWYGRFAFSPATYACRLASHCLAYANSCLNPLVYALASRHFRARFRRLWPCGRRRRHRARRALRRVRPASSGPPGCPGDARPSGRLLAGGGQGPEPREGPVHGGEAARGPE

cells = format: functional, cell-based; settings: HEK-CNG
[16] = molecular target: Photoreceptor-specific nuclear receptor (Homo sapiens, UniProt Q9Y5X4); format: functional, cell-based;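 further: CHO-S cells with Gal4-NCOR and VP16-NR2E3 two-hybrid luciferase reporter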
Photoreceptor-specific nuclear receptor, sequence (Q9Y5X4 whole entry, the tested form may be a part): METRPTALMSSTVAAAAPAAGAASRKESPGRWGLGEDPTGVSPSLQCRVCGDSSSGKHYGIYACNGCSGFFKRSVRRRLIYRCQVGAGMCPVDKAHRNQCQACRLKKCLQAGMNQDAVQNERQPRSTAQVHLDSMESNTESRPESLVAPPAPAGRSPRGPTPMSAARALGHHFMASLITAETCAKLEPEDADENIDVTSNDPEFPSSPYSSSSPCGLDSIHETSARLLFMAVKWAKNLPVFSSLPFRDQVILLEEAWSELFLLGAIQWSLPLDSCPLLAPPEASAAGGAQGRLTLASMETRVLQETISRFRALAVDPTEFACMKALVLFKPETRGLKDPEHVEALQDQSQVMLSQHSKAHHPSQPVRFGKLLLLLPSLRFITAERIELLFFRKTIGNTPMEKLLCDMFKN

IC50 (Caspase-3): > 99 µM (inactive) | IC50 [1]: > 99 µM (inactive) | IC50 [3]: > 99 µM (inactive)
SMILES: COc1ccc(/C=N/Nc2nc(NCc3ccccc3)nc(N(C)C)n2)cc1Br
IC50 [2]: > 99 µM (inactive)

SMILES: CN(C)CCSc1nccc(-c2ccc(-c3ccnc(SCCN(C)C)n3)s2)n1
GI50 (SN12K1): 11.1 µM (inactive) | GI50 (P388): 1.04 µM (active) | GI50 (P388/ADR): 2.35 µM (inactive)

SMILES: COc1nc(N)nc2nc[nH]c12
GI50 (SN12K1): 383 µM (inactive) | GI50 (P388): 339 µM (inactive) | GI50 (P388/ADR): 265 µM (inactive)

SMILES: O=C(c1noc2c1CCc1ccccc1-2)N1CCOCC1
EC50 [4]: > 91.2 µM (inactive) | EC50 [5]: > 91.2 µM (inactive)

SMILES: COc1ccc(OC)c(-c2cc(C(=O)N3CCN(c4ncccn4)CC3)c3ccccc3n2)c1
AC50 [6]: 127 µM (active)

SMILES: COc1cccc(CNCCc2c[nH]c3ccccc23)c1OCc1ccccc1F
AC50 [7]: 25.6 µM (active) | AC50 [8]: 9.93 µM (active) | EC50 [9]: 1.5 µM (active) | EC50 [10]: 5.56 µM (active) | EC50 [11]: 4.65 µM (active) | AC50 (INS1): 8.08 µM (active) | AC50 [12]: 23.2 µM (active) | AC50 [13]: 3.52 µM (active) | AC50 [14]: 7.5 µM (active) | EC50 [15]: > 150 µM (inconclusive)

SMILES: Cc1n[nH]c(NCCO)c1[N+](=O)[O-]
IC50 (Galanin receptor type 3): > 29.9 µM (inactive) | EC50 (cells): > 29.9 µM (inactive)

IC50 [16]: 1.25 µM (active)
SMILES: Cc1onc(-c2ccccc2Cl)c1C(=O)Nc1nc2c(s1)CCCC2

IC50 (Caspase-3): > 99 µM (inactive) | IC50 [1]: > 99 µM (inactive) | IC50 [3]: > 99 µM (inactive)
SMILES: CCOc1ccc(C(=O)Nc2ccc3ccccc3c2)cc1Br
IC50 [2]: > 99 µM (inactive)

SMILES: CC1=Nn2c(nnc2-c2ccccn2)SC1
AC50 [6]: 84.7 µM (active)

IC50 [16]: 4.43 µM (active)
SMILES: O=C(Nc1ccc(Cn2cccn2)cc1)c1ccc(COc2ccccc2Br)cc1

IC50 (Caspase-3): > 99 µM (inactive) | IC50 [1]: 11 µM (active) | IC50 [3]: 32.9 µM (active)
SMILES: C(/C=C/c1ccccc1)=N/Nc1cc(N2CCCC2)nc(N2CCCC2)n1
IC50 [2]: 43.5 µM (active)

SMILES: COc1cc2c(cc1OC)C(OC)N(C)c1c-2ccc2cc3c(cc12)OCO3 (stereo unspecified)
GI50 (SN12K1): 0.652 µM (active) | GI50 (P388): 0.667 µM (active) | GI50 (P388/ADR): 2.58 µM (inactive)

SMILES: NC1(C(=O)O)CCc2ccc(N(CCCl)CCCl)cc2C1 (stereo unspecified)
GI50 (SN12K1): 64.1 µM (inactive) | GI50 (P388): 1.67 µM (inactive) | GI50 (P388/ADR): 10.9 µM (inactive)

SMILES: Nc1ccc(O)cc1C(=O)OCC(=O)c1ccc(C2CCCCC2)cc1
AC50 [7]: 0.865 µM (active) | AC50 [8]: 2.3 µM (active) | AC50 [12]: 40.9 µM (active) | AC50 [14]: 2.09 µM (active)
